According to ChEMBL document CHEMBL3580659, “One-pot multicomponent synthesis of indole incorporated thiazolylcoumarins and their antibacterial, anticancer and DNA cleavage studies” (2015):

Key:
Assay type in all cases: functional
LOX IMVI = assay: Cytotoxicity against human LOXIMVI cells assessed as cell growth level at 100 uM after 48 hrs by sulforhodamine B assay
SK-MEL-2 [1] = assay: Cytotoxicity against human SK-MEL-2 cells assessed as cell growth level at 100 uM after 48 hrs by sulforhodamine B assay
SK-OV-3 [2] = assay: Cytotoxicity against human SKOV3 cells assessed as cell growth level at 100 uM after 48 hrs by sulforhodamine B assay
MCF7 [3] = assay: Cytotoxicity against human MCF7 cells assessed as cell growth level at 100 uM after 48 hrs by sulforhodamine B assay
NCI-H460 [4] = assay: Cytotoxicity against human NCI-H460 cells assessed as cell growth level at 10 nM after 48 hrs by sulforhodamine B assay
SW-620 [5] = assay: Cytotoxicity against human SW620 cells assessed as cell growth level at 10 nM after 48 hrs by sulforhodamine B assay
[6] = Cytotoxicity against human NCI-ADR-RES cells assessed as cell growth level at 10 nM after 48 hrs by sulforhodamine B assay
SK-OV-3 [7] = assay: Cytotoxicity against human SKOV3 cells assessed as cell growth level at 10 nM after 48 hrs by sulforhodamine B assay
UO-31 [8] = assay: Cytotoxicity against human UO31 cells assessed as cell growth level at 10 nM after 48 hrs by sulforhodamine B assay
DU-145 = assay: Cytotoxicity against human DU145 cells assessed as cell growth level at 10 nM after 48 hrs by sulforhodamine B assay
HOP-92 = assay: Cytotoxicity against human HOP92 cells assessed as cell growth level at 100 nM after 48 hrs by sulforhodamine B assay
NCI-H226 = assay: Cytotoxicity against human NCI-H226 cells assessed as cell growth level at 100 nM after 48 hrs by sulforhodamine B assay
SW-620 [9] = assay: Cytotoxicity against human SW620 cells assessed as cell growth level at 100 nM after 48 hrs by sulforhodamine B assay
SF-268 = assay: Cytotoxicity against human SF268 cells assessed as cell growth level at 100 nM after 48 hrs by sulforhodamine B assay
SF-539 [10] = assay: Cytotoxicity against human SF539 cells assessed as cell growth level at 100 nM after 48 hrs by sulforhodamine B assay
SK-MEL-2 [11] = assay: Cytotoxicity against human SK-MEL-2 cells assessed as cell growth level at 100 nM after 48 hrs by sulforhodamine B assay
A498 = assay: Cytotoxicity against human A498 cells assessed as cell growth level at 100 nM after 48 hrs by sulforhodamine B assay
SN12C [12] = assay: Cytotoxicity against human SN12C cells assessed as cell growth level at 100 nM after 48 hrs by sulforhodamine B assay
UO-31 [13] = assay: Cytotoxicity against human UO31 cells assessed as cell growth level at 100 nM after 48 hrs by sulforhodamine B assay
CCRF-CEM = assay: Cytotoxicity against human CCRF-CEM cells assessed as cell growth level at 10 uM after 48 hrs by sulforhodamine B assay
MOLT-4 = assay: Cytotoxicity against human MOLT4 cells assessed as cell growth level at 10 uM after 48 hrs by sulforhodamine B assay
NCI-H460 [14] = assay: Cytotoxicity against human NCI-H460 cells assessed as cell growth level at 1 uM after 48 hrs by sulforhodamine B assay
HT-29 [15] = assay: Cytotoxicity against human HT-29 cells assessed as cell growth level at 1 uM after 48 hrs by sulforhodamine B assay
HCT-116 = assay: Cytotoxicity against human HCT116 cells assessed as cell growth level at 10 uM after 48 hrs by sulforhodamine B assay
HT-29 [16] = assay: Cytotoxicity against human HT-29 cells assessed as cell growth level at 10 uM after 48 hrs by sulforhodamine B assay
SN12C [17] = assay: Cytotoxicity against human SN12C cells assessed as cell growth level at 10 uM after 48 hrs by sulforhodamine B assay
UO-31 [18] = assay: Cytotoxicity against human UO31 cells assessed as cell growth level at 10 uM after 48 hrs by sulforhodamine B assay
SF-295 = assay: Cytotoxicity against human SF295 cells assessed as cell growth level at 1 uM after 48 hrs by sulforhodamine B assay
UACC-62 [19] = assay: Cytotoxicity against human UACC62 cells assessed as cell growth level at 1 uM after 48 hrs by sulforhodamine B assay
ACHN = assay: Cytotoxicity against human ACHN cells assessed as cell growth level at 1 uM after 48 hrs by sulforhodamine B assay
CAKI-1 = assay: Cytotoxicity against human CAKI-1 cells assessed as cell growth level at 1 uM after 48 hrs by sulforhodamine B assay
SN12C [20] = assay: Cytotoxicity against human SN12C cells assessed as cell growth level at 1 uM after 48 hrs by sulforhodamine B assay
MCF7 [21] = assay: Cytotoxicity against human MCF7 cells assessed as cell growth level at 1 uM after 48 hrs by sulforhodamine B assay
NCI-H460 [22] = assay: Cytotoxicity against human NCI-H460 cells after 48 hrs by sulforhodamine B assay; conditions: NCI-H460, 48 h
SF-539 [23] = assay: Cytotoxicity against human SF539 cells after 48 hrs by sulforhodamine B assay; conditions: SF-539, 48 h
SNB-19 [24] = assay: Cytotoxicity against human SNB19 cells after 48 hrs by sulforhodamine B assay; conditions: SNB-19, 48 h
NCI-H460 [25] = assay: Cytotoxicity against human NCI-H460 cells assessed as cell growth level at 100 uM after 48 hrs by sulforhodamine B assay
NCI-H522 = assay: Cytotoxicity against human NCI-H522 cells assessed as cell growth level at 100 uM after 48 hrs by sulforhodamine B assay
SNB-19 [26] = assay: Cytotoxicity against human SNB19 cells assessed as cell growth level at 100 uM after 48 hrs by sulforhodamine B assay
UACC-62 [27] = assay: Cytotoxicity against human UACC62 cells after 48 hrs by sulforhodamine B assay; conditions: UACC-62, 48 h
UO-31 [28] = assay: Cytotoxicity against human UO31 cells after 48 hrs by sulforhodamine B assay; conditions: UO-31, 48 h
[29] = read-out: LC50 (the source's name)
[30] = read-out: pLC50 (the source's name) (converted)

## O=c1oc2ccccc2cc1-c1csc(N/N=C/c2c[nH]c3ccccc23)n1
LOX IMVI
  Activity: -45%
SK-MEL-2 [1]
  Activity: -93%
SK-OV-3 [2]
  Activity: -48%
MCF7 [3]
  Activity: -60%
NCI-H460 [4]
  Activity: 79%
SW-620 [5]
  Activity: 98%
[6]
  Activity: 105%
SK-OV-3 [7]
  Activity: 94%
UO-31 [8]
  Activity: 97%
DU-145
  Activity: 95%
HOP-92
  Activity: 94%
NCI-H226
  Activity: 104%
SW-620 [9]
  Activity: 95%
SF-268
  Activity: 88%
SF-539 [10]
  Activity: 88%
SK-MEL-2 [11]
  Activity: 95%
A498
  Activity: 96%
SN12C [12]
  Activity: 90%
UO-31 [13]
  Activity: 91%
CCRF-CEM
  Activity: -26.91%
MOLT-4
  Activity: -32.32%
NCI-H460 [14]
  Activity: 52%
HT-29 [15]
  Activity: 89%
HCT-116
  Activity: 7.48%
HT-29 [16]
  Activity: 32.14%
SN12C [17]
  Activity: 0.22%
UO-31 [18]
  Activity: -90.51%
SF-295
  Activity: 80%
UACC-62 [19]
  Activity: 69%
ACHN
  Activity: 72%
CAKI-1
  Activity: 88%
SN12C [20]
  Activity: 45%
MCF7 [21]
  Activity: 69%
NCI-H460 [22]; read-out: GI50
  GI50: 2.84 µM
NCI-H460 [22]; read-out: LC50
  LC50: > 100 µM
NCI-H460 [22]; read-out: TGI
  TGI: 9.69 µM
NCI-H460 [22]; read-out: pGI50 (converted)
  GI50: 2.82 µM
NCI-H460 [22]; read-out: pLC50 (converted)
  LC50: > 100 µM
NCI-H460 [22]; read-out: pTGI (converted)
  TGI: 9.77 µM
SF-539 [23]; read-out: GI50
  GI50: 1.58 µM
SF-539 [23]; [29]
  CC50: 7.25 µM
SF-539 [23]; read-out: TGI
  TGI: 3.38 µM
SF-539 [23]; read-out: pGI50 (converted)
  GI50: 1.58 µM
SF-539 [23]; [30]
  CC50: 7.24 µM
SF-539 [23]; read-out: pTGI (converted)
  TGI: 3.39 µM
SNB-19 [24]; read-out: GI50
  GI50: 3.39 µM
SNB-19 [24]; [29]
  CC50: > 100 µM
SNB-19 [24]; read-out: TGI
  TGI: 62.1 µM
SNB-19 [24]; read-out: pGI50 (converted)
  GI50: 3.39 µM
SNB-19 [24]; [30]
  CC50: > 100 µM
SNB-19 [24]; read-out: pTGI (converted)
  TGI: 61.7 µM
NCI-H460 [25]
  Activity: -94%
NCI-H522
  Activity: -80%
SNB-19 [26]
  Activity: -44%
UACC-62 [27]; read-out: GI50
  GI50: 1.6 µM
UACC-62 [27]; [29]
  CC50: 7.11 µM
UACC-62 [27]; read-out: TGI
  TGI: 3.38 µM
UACC-62 [27]; read-out: pGI50 (converted)
  GI50: 1.58 µM
UACC-62 [27]; [30]
  CC50: 7.08 µM
UACC-62 [27]; read-out: pTGI (converted)
  TGI: 3.39 µM
UO-31 [28]; read-out: GI50
  GI50: 0.76 µM
UO-31 [28]; [29]
  CC50: 5.47 µM
UO-31 [28]; read-out: TGI
  TGI: 2.23 µM
UO-31 [28]; read-out: pGI50 (converted)
  GI50: 0.759 µM
UO-31 [28]; [30]
  CC50: 5.5 µM
UO-31 [28]; read-out: pTGI (converted)
  TGI: 2.24 µM
